The source made the active and inactive calls. The rule behind the calls is not given here.
Columns and labels:
Nakaseomyces glabratus = assay: Antimicrobial activity against Candida glabrata by Alamar blue method; format: functional, organism-based
Candida albicans = assay: Antimicrobial activity against Candida albicans ATCC 90028 by Alamar blue method; format: functional, organism-based
Cryptococcus neoformans = assay: Antimicrobial activity against Cryptococcus neoformans ATCC 90113 by Alamar blue method; format: functional, organism-based
Staphylococcus aureus [1] = assay: Antimicrobial activity against Staphylococcus aureus ATCC 29213 by Alamar blue method; format: functional, organism-based
[2] = test system: Mycobacterium intracellulare; assay: Antimicrobial activity against Mycobacterium intracellulare ATCC 23068 by Alamar blue method; format: functional, organism-based
Staphylococcus aureus [3] = assay: Antimicrobial activity against methicillin-resistant Staphylococcus aureus ATCC 33591 by Alamar blue method; format: functional, organism-based
Aspergillus fumigatus = assay: Antimicrobial activity against Aspergillus fumigatus ATCC 204305 by Alamar blue method; format: functional, organism-based
Vero = assay: Cytotoxicity against african green monkey Vero cells at 10 ug/ml after 48 hrs by Neutral Red dye assay; format: cell-based; conditions: chlorocebus sabaeus
Pichia kudriavzevii = assay: Antimicrobial activity against Candida krusei ATCC 6258 by Alamar blue method; format: functional, organism-based
[4] = Staphylococcus aureus, ATCC 29213
[5] = Staphylococcus aureus, ATCC 29213, read-out: IC50

SMILES | IC50 (Nakaseomyces glabratus) | MFC (Nakaseomyces glabratus) | MIC (Nakaseomyces glabratus) | IC50 (Candida albicans) | MFC (Candida albicans) | MIC (Candida albicans) | MFC (Cryptococcus neoformans) | MIC (Cryptococcus neoformans) | IC50 [2] | MBC [2] | MIC [2] | IC50 (Staphylococcus aureus [3]) | MBC (Staphylococcus aureus [3]) | MIC (Staphylococcus aureus [3]) | IC50 (Aspergillus fumigatus) | MFC (Aspergillus fumigatus) | MIC (Aspergillus fumigatus) | Activity (Vero) | IC50 (Pichia kudriavzevii) | MFC (Pichia kudriavzevii) | other results
Clc1ccc(CSc2cc3ccccc3[n+](CCCCCC3CCCCC3)c2)cc1Cl.[I-] | 3 µg/mL | 5 µg/mL | 5 µg/mL | 1.1 µg/mL | 2.5 µg/mL | 2.5 µg/mL | 0.63 µg/mL | 0.63 µg/mL | 4.5 µg/mL | 10 µg/mL | 5 µg/mL | 0.18 µg/mL | 1.3 µg/mL | 1.3 µg/mL | 2.8 µg/mL | 5 µg/mL | 5 µg/mL | Non-toxic | 0.3 µg/mL | 1.3 µg/mL | IC50 (Cryptococcus neoformans): 0.45 µg/mL; MBC (Staphylococcus aureus [1]; [4]): 2.5 µg/mL; MIC (Staphylococcus aureus [1]; [4]): 2.5 µg/mL; IC50 (Staphylococcus aureus [1]; [5]): 0.5 µg/mL; MIC (Pichia kudriavzevii): 1.3 µg/mL
Oc1ccc(CSc2cc3ccccc3[n+](CCCCCC3CCCCC3)c2)cc1.[I-] | 7.9 µg/mL | 20 µg/mL | 20 µg/mL | 11 µg/mL | 20 µg/mL | 20 µg/mL | 10 µg/mL | 10 µg/mL | 2.2 µg/mL | 5 µg/mL | 2.5 µg/mL | 0.34 µg/mL | 5 µg/mL | 0.63 µg/mL | 16 µg/mL | 20 µg/mL | 20 µg/mL | Non-toxic | 0.56 µg/mL | 1.3 µg/mL | MBC (Staphylococcus aureus [1]; [4]): 2.5 µg/mL; MIC (Staphylococcus aureus [1]; [4]): 2.5 µg/mL; IC50 (Staphylococcus aureus [1]; [5]): 0.26 µg/mL; MIC (Pichia kudriavzevii): 1.3 µg/mL
N#Cc1ccccc1CSc1cc2ccccc2[n+](CCCCCC2CCCCC2)c1.[I-] | > 20 µg/mL | > 20 µg/mL | > 20 µg/mL | 1.6 µg/mL | 10 µg/mL | 5 µg/mL | 2.5 µg/mL | 1.3 µg/mL | 6.8 µg/mL | 10 µg/mL | 10 µg/mL | 0.97 µg/mL | 10 µg/mL | 2.5 µg/mL | 11 µg/mL | 20 µg/mL | 20 µg/mL | Non-toxic | 1.5 µg/mL | 5 µg/mL | IC50 (Cryptococcus neoformans): 0.5 µg/mL; MBC (Staphylococcus aureus [1]; [4]): 5 µg/mL; MIC (Staphylococcus aureus [1]; [4]): 1.3 µg/mL; IC50 (Staphylococcus aureus [1]; [5]): 0.68 µg/mL; MIC (Pichia kudriavzevii): 5 µg/mL
Fc1ccc(CSc2cc3ccccc3[n+](CCCCCC3CCCCC3)c2)cc1.[I-] | 1.3 µg/mL | 2.5 µg/mL | 2.5 µg/mL | 1.9 µg/mL | 5 µg/mL | 5 µg/mL | 0.63 µg/mL | 0.63 µg/mL | 6.9 µg/mL | 10 µg/mL | 10 µg/mL | 0.34 µg/mL | 2.5 µg/mL | 0.63 µg/mL | 5.2 µg/mL | 10 µg/mL | 10 µg/mL | Non-toxic | 0.14 µg/mL | 0.63 µg/mL | MBC (Staphylococcus aureus [1]; [4]): 2.5 µg/mL; MIC (Staphylococcus aureus [1]; [4]): 0.63 µg/mL; IC50 (Staphylococcus aureus [1]; [5]): 0.34 µg/mL; MIC (Pichia kudriavzevii): 0.63 µg/mL
Cc1cc(C)c(CSc2cc3ccccc3[n+](CCCCCC3CCCCC3)c2)c(C)c1.[I-] | 1.7 µg/mL | 5 µg/mL | 5 µg/mL | > 20 µg/mL | > 20 µg/mL | > 20 µg/mL | 0.63 µg/mL | 0.63 µg/mL | 2.9 µg/mL | 5 µg/mL | 5 µg/mL | 0.23 µg/mL | 0.63 µg/mL | 0.63 µg/mL | 2.3 µg/mL | 5 µg/mL | 5 µg/mL | Non-toxic | 0.44 µg/mL | 0.63 µg/mL | IC50 (Cryptococcus neoformans): 0.32 µg/mL; MBC (Staphylococcus aureus [1]; [4]): 1.3 µg/mL; MIC (Staphylococcus aureus [1]; [4]): 0.63 µg/mL; IC50 (Staphylococcus aureus [1]; [5]): 0.34 µg/mL; MIC (Pichia kudriavzevii): 0.63 µg/mL
FC(F)(F)c1cccc(CSc2cc3ccccc3[n+](CCCCCC3CCCCC3)c2)c1.[I-] | 2.8 µg/mL | 5 µg/mL | 5 µg/mL | 1.2 µg/mL | 2.5 µg/mL | 2.5 µg/mL | 0.63 µg/mL | 0.63 µg/mL | 7.2 µg/mL | 10 µg/mL | 10 µg/mL | 0.56 µg/mL | 2.5 µg/mL | 1.3 µg/mL | 1.9 µg/mL | 2.5 µg/mL | 2.5 µg/mL | Non-toxic | 1.4 µg/mL | 2.5 µg/mL | IC50 (Cryptococcus neoformans): 0.28 µg/mL; MBC (Staphylococcus aureus [1]; [4]): 2.5 µg/mL; MIC (Staphylococcus aureus [1]; [4]): 0.63 µg/mL; IC50 (Staphylococcus aureus [1]; [5]): 0.4 µg/mL; MIC (Pichia kudriavzevii): 2.5 µg/mL
Clc1cc(Cl)cc(CSc2cc3ccccc3[n+](CCCCCC3CCCCC3)c2)c1.[I-] | > 20 µg/mL | > 20 µg/mL | > 20 µg/mL | 2.8 µg/mL | 5 µg/mL | 5 µg/mL | 1.3 µg/mL | 1.3 µg/mL | 3.1 µg/mL | 5 µg/mL | 5 µg/mL | 1.3 µg/mL | 10 µg/mL | 2.5 µg/mL | > 20 µg/mL | > 20 µg/mL | > 20 µg/mL | Non-toxic | 17 µg/mL | > 20 µg/mL | IC50 (Cryptococcus neoformans): 0.63 µg/mL; IC50 (Staphylococcus aureus [1]): Not Active; MBC (Staphylococcus aureus [1]): inactive; MIC (Staphylococcus aureus [1]): inactive; MIC (Pichia kudriavzevii): > 20 µg/mL
COc1ccccc1CSc1cc2ccccc2[n+](CCCCCC2CCCCC2)c1.[I-] | 8.2 µg/mL | 20 µg/mL | 20 µg/mL | 2.8 µg/mL | 5 µg/mL | 5 µg/mL | 2.5 µg/mL | 0.63 µg/mL | 3 µg/mL | 5 µg/mL | 5 µg/mL | 0.35 µg/mL | 5 µg/mL | 0.63 µg/mL | 9.8 µg/mL | > 20 µg/mL | 20 µg/mL | Non-toxic | 0.75 µg/mL | 2.5 µg/mL | IC50 (Cryptococcus neoformans): 0.34 µg/mL; MBC (Staphylococcus aureus [1]; [4]): 5 µg/mL; MIC (Staphylococcus aureus [1]; [4]): 0.63 µg/mL; IC50 (Staphylococcus aureus [1]; [5]): 0.31 µg/mL; MIC (Pichia kudriavzevii): 2.5 µg/mL
Fc1cccc(CSc2cc3ccccc3[n+](CCCCCC3CCCCC3)c2)c1.[I-] | 2.6 µg/mL | 5 µg/mL | 5 µg/mL | 1.8 µg/mL | 5 µg/mL | 5 µg/mL | 0.63 µg/mL | 0.63 µg/mL | 6.5 µg/mL | 10 µg/mL | 10 µg/mL | 0.37 µg/mL | 1.3 µg/mL | 0.63 µg/mL | 5.6 µg/mL | 20 µg/mL | 10 µg/mL | Non-toxic | 0.49 µg/mL | 1.3 µg/mL | MBC (Staphylococcus aureus [1]; [4]): 1.3 µg/mL; MIC (Staphylococcus aureus [1]; [4]): 0.63 µg/mL; IC50 (Staphylococcus aureus [1]; [5]): 0.44 µg/mL; MIC (Pichia kudriavzevii): 1.3 µg/mL

— ChEMBL document CHEMBL3085759, “Structure-activity relationship (SAR) and preliminary mode of action studies of 3-substituted benzylthioquinolinium iodide as anti-opportunistic infection agents” (Eur J Med Chem, 2013)
